Experimental data: patent US20190382827A1, “USE OF MICROBIAL METABOLITES FOR TREATING DISEASES” (Yeda Research and Development Co. Ltd., priority 2015, published 2019)

How the values were obtained:
NLRP6 inflammasome [1] = experiment: Colon explants cultured with metabolites (IL-18 ELISA, caspase-1 immunoblot, gene expression); format: cell-based, mouse; settings: for IL-18 protein levels: Nlrp3-/- explants; for IL-18 suppression with increasing doses: colonic explant-based validation screen; for IL-18 transcript (mRNA) levels / caspase-1 cleavage / processing: colonic explants; for caspase-1 cleavage / processing: 12 hours incubation, immunoblot p45/p20; for suppression of IL-18 secretion, metabolite screen: cultured WT colon explants
Experimental: Colons were excised and washed thoroughly with PBS, homogenized in RIPA buffer containing protease inhibitors, incubated for 20 min in 4° C. and centrifuged for 20 min, 14,000 rpm at 4° C. Samples were separated on 15% acrylamide gels and transferred onto nitrocellulose membranes. Western blot analysis was performed using anti-caspase 1 p20 polyclonal antibody (Adipogen, AG-20B-0042B-C100) and Goat anti mouse antibody (Jackson ImmunoResearch, 115-035-003). Band density was calculated using ImageJ software. Colon pieces, 0.5 cm long, from the proximal colon were removed, rinsed with PBS, and weighed. The tissue explants were cultured for 24 hrs in DMEM medium containing 10% FBS, L-glutamine, penicillin, and streptomycin at 37° C. Culture medium was collected, centrifuged and the resulting supernatant stored in aliquots at -20° C. Concentrations of IL-18 in the serum or culture supernatants were measured using ELISA. […] Samples were then washed and plates were incubated with anti-mouse IL-18-biotin antibody ([…]-6 MBL) for 1 hour and HRP-Avidin (BioLegend) for 1 hour before quantification. […] For AMP induction in-vitro, 3 μg IL-18 were added to colon explants for 7 hours, then the explants were maintained in RNAlater and RNA was extracted. Tissues were preserved in RNAlater solution (Ambion) and subsequently homogenized in Tri Reagent (Fox et al.). RNA was purified according to the manufacturer's instructions. Two microgram of total RNA was used to generate cDNA (HighCapacity cDNA Reverse Transcription kit; Applied Biosystems). RealTime-PCR was performed using gene-specific primer/probe sets (Applied Biosystems) and Kapa Probe Fast qPCR kit (Kapa Biosystems) on a Viia7 instrument (Applied Biosystems). PCR conditions were 95° C. for 20 s, followed by 40 cycles of 95° C. for 3 s and 60° C. for 30 s. Data were analyzed using the deltaCt method with hprt serving as the reference housekeeping gene.

NLRP6 inflammasome [2] = settings: for taurine-mediated increase in IL-18 production: organoids, histamine and spermine supplemented in addition to taurine
Experimental: (I, J) IL-18 production by WT (I) and Nlrp6^−/− (J) colonic organoids incubated with either taurine or taurine+histamine+spermine.
(K) Representative organoid images from experiments shown in (I) and (J).

commensal bacteria = experiment: Anaerobic microbiota cultures supplemented with metabolites; set-up: species or system mouse; settings: anaerobic culturing

Structure (SMILES)	IL-18 protein levels (NLRP6 inflammasome [1])	IL-18 suppression with increasing doses (NLRP6 inflammasome [1])	IL-18 transcript (mRNA) levels (NLRP6 inflammasome [1])	caspase-1 cleavage / processing (NLRP6 inflammasome [1])	suppression of IL-18 secretion, metabolite screen (NLRP6 inflammasome [1])	organoid (spheroid) growth or morphology (NLRP6 inflammasome [2])	taurine-mediated increase in IL-18 production (NLRP6 inflammasome [2])	composition of anaerobic microbiota cultures (commensal bacteria)	AMPs (Ang4) expression (NLRP6 inflammasome [1]; WT explants cultured for 8 hours)	dependence of IL-18 induction on NLRP6 / NLRP3 (NLRP6 inflammasome [1]; WT, Nlrp6-/- and Nlrp3-/- colon explants)	inflammasome suppression (IL-18 production) by spermine or histamine upon concomitant taurine (NLRP6 inflammasome [1]; colon explants cultured with histamine and spermine, with addition of taurine)	IL-18 induction (NLRP6 inflammasome [1]; sterile WT colonic explants, metabolite screen and increasing doses)	IL-18 secretion (NLRP6 inflammasome [2]; WT organoids)
NCCc1c[nH]cn1 [histamine]	decreased	concentration-dependent IL-18 suppressive functions	no change	reduced	strongest suppressors	not affecting	diminished	did not feature significant compositional alterations	–	–	–	–	–
NCCCNCCCCNCCCN [spermine]	decreased	concentration-dependent IL-18 suppressive functions	no change	reduced	strongest suppressors	not affecting	diminished	did not feature significant compositional alterations	–	–	–	–	–
NCCS(=O)(=O)O [taurine]	–	–	–	enhanced	–	not affecting	–	did not feature significant compositional alterations	induced upregulation	dependent on NLRP6, but not on NLRP3	rescued	strongest dose-dependent inductive activity	induced
